Values of other authors in patent publication US8354388B2, “Inhibitors of MRP4 for the treatment of vascular disorders” (INSERM (Institut National de la Sante et de la Recherche …, priority 2007, dated 2013).

Target: T1, MRP4 (Homo sapiens, UniProt O15439)
T1 sequence (O15439 1-1325): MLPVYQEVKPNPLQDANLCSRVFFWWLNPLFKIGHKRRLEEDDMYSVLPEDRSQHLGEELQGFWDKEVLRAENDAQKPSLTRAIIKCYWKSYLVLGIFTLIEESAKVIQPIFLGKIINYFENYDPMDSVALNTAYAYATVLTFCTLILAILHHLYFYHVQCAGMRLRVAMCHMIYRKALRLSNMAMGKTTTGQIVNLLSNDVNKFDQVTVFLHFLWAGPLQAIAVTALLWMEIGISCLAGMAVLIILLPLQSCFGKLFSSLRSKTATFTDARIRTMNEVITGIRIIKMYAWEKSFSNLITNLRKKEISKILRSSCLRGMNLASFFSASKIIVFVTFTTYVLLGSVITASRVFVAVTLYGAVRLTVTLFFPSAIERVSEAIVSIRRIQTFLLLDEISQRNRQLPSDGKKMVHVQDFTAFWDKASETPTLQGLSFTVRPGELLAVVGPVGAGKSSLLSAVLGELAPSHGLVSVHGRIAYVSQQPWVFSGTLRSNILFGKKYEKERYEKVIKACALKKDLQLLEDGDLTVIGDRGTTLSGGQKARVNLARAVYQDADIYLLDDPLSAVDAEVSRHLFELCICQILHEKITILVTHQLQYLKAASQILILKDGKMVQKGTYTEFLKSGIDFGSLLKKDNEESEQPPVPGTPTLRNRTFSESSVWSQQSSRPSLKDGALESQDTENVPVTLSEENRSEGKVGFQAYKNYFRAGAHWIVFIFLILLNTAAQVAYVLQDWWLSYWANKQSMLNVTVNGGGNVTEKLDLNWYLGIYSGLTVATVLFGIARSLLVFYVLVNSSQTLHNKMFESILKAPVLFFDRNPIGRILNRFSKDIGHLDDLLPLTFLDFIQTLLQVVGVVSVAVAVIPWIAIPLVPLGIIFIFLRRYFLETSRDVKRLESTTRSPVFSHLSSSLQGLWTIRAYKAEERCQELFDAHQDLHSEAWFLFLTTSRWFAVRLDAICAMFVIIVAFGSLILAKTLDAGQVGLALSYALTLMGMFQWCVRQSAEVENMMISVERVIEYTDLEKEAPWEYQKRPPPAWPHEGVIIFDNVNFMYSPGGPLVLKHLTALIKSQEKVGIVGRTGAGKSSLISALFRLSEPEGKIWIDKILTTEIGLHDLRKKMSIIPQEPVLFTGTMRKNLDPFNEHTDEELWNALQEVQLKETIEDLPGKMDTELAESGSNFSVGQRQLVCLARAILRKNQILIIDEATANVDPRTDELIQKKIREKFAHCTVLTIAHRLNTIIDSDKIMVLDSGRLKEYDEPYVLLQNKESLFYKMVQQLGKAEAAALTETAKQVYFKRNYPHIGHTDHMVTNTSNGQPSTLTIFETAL
Conditions: literature reference 41; cited from earlier work

In the case of `CCCc1nn(C)c2c(=O)[nH]c(-c3cc(S(=O)(=O)N4CCN(C)CC4)ccc3OCC)nc12` [Sildenafil], the “reported MRP4 inhibition” value is given as “MRP4 inhibitor”.
